Assay results reported in patent US9079863B2, “Crystalline forms for 5-amino-2,3-dihydrophthalazine-1,4-dione sodium salt, pharmaceutical preparations containing the same and method for the production of said forms” (METRIOPHARM AG, priority 2010, dated 2015).
Structures can show the parent of a compound that is named as a salt. Where two headings read alike, the source gives them in different places.

Assays:
[1] = for Disintegration temperature: 30-500° C. in synthetic air (4 N2: 1 O2), sodium salt
Method: (Table 5). The solid phase transformation of the dihydrate according to U.S. Pat. No. 6,483,326 B1 was measured by means of the simultaneous thermogravimetry-differential thermal analysis with a Linseis L81-077 coupled with mass spectroscopy measurement with a Netzsch STA 449 C thermobalance, with MS and FTIR coupling at 30-300° C. under helium. The disintegration temperatures of forms I-II were determined with the same device at 30-500° C. in synthetic air (4 N2: 1 O2). The data were analyzed with the factory-set software Proteus.

physchem = settings: saturated solution
Method: Further, the solubility of the crystalline forms in a saturated solution was determined.

[2] = system: isolated mouse bone marrow macrophages
Method: For this purpose, isolated mouse bone marrow macrophages were first treated with form II in concentrations of 2, 20 or 200 μg/mL and stimulated 1 h after treatment with 100 ng/mL or 10 ng/mL LPS. The supernatants were collected 24 h later, and the concentration of TNF-alpha and IL-6 was measured. Not stimulated macrophages, not stimulated macrophages treated with 200 μg/mL form II and LPS-stimulated macrophages (10 or 100 ng/mL LPS) were used as controls.

[3] = system: stimulated murine macrophages; settings: 1 μg/mL LPS with 100 μg/mL
Method: These were measured in the combination of 2 μg/mL active ingredient with macrophages stimulated with 100 ng/mL LPS as well as in the group of the macrophages stimulated with 10 ng/mL in the active ingredient concentration with 20 μg/mL.

[4] = not infected mice; for Weight development/increase MW: over two days
Method: (§1) In a mouse model of the Gram-positive sepsis (infection with S. pyogenes) the therapeutic usability of the crystal forms I and II of the 5-amino-2,3-dihydrophthalazine-1,4-dione sodium salt was tested. The administration of active ingredient was made parenterally 6 hours after the infection occurred. A second administration of active ingredient was made 24 hours after the first application. The test was completed 48 hours after the infection. For both forms (substance groups) three different doses were used. The mice obtained 2, 20 or 200 μg each of form I or form II per animal and application.
(§2) The individual treatment groups comprised 5 animals each, and for the not infected controls two repetitions and for the infected controls and that groups that contained form II four repetitions were made, so that in total 180 animals were in the test.
It is known that the toxicity of substances in an animal test with growing-up mice or rate can influence the weight development.

S. pyogenes [5] = settings: infected mice, sodium salt; for Weight development/increase Total MW: complete test time 48 h, survivors
Method: as §1, §2
In the sepsis model described in Example 3, the influence of crystal forms I and II of the 5-amino-2,3-dihydrophthalazine-1,4-dione sodium salt on the weight development of mice infected with S. pyogenes was tested. The development of the body weight during an acute infection may supply important predictive information.

S. pyogenes [6] = settings: 48 hours after the infection
Method: as §1, §2
In the sepsis model described in Example 3, the influence the crystal forms II and I of the 5-amino-2,3-dihydrophthalazine-1,4-dione sodium, salt on the probability of survival of the mice infected with S. pyogenes was tested.

S. pyogenes [7] = settings: for Germ load (CFU) Blood MW / Germ load (CFU) Liver MW: 48 hours after the infection, sodium salt
Method: as §1, §2
In the sepsis model described in Example 3, the influence of crystal forms II and I of the 5-amino-2,3-dihydrophthalazine-1,4-dione sodium salt on the germ load of the mice infected with S. pyogenes in blood and liver was tested. The test was completed 48 hours after the infection, and the germ load (CFU) existing at this time in blood and liver was determined (see Table).

[8] = healthy mice
Method: as §1
Blood taking occurred after 48 hours at the end of the second application day.

S. pyogenes [9] = settings: 48 hours after the infection; remark: listed apart in the source
Method: as §1

[10] = healthy mice, end of the second application day
Description: When administering form I and form II to healthy mice, it was investigated, whether and which influence the application has on certain liver enzymes, in particular the transaminases GOT (AST) and GPT (ALT). Blood taking occurred at the end of the second application day.

[11] = 0.25 g in 10 mL H2O VE, stirring 500 rpm, 25° C., first minutes after addition; sodium salt
Method: The complete dissolution of 0.25 g form I or form II, respectively, in 10 mL H2O VE was achieved under stirring (500 rpm) at 25° C.

[12] = dose 2 μg, LPS 10 ng/mL, supernatant 24 h
[13] = dose 2 μg, LPS 100 ng/mL, supernatant 24 h
[14] = dose 20 μg, LPS 10 ng/mL, supernatant 24 h
[15] = dose 20 μg, LPS 100 ng/mL, supernatant 24 h
[16] = dose 200 μg, LPS 10 ng/mL, supernatant 24 h
[17] = dose 200 μg, LPS 100 ng/mL, supernatant 24 h
[18] = dose 200 μg, not stimulated (no LPS)

With `Nc1cccc2c(=O)[nH][nH]c(=O)c12` [Form II, 5-amino-2,3-dihydrophthalazine-1,4-dione sodium salt] the Disintegration temperature ([1]; listed as form II) was 385 °C, the Disintegration temperature [1] was 385 °C ± 10 °C and the “Time for which the crystalline form is stable” value ([1]; room temperature (25° C.) and 40° C.) was “at least two”. For the same compound, the Solubility (physchem; in water at room temperature, sodium salt) was 252 mg/mL, the “Solubility in comparison” value (physchem) was “more soluble than form I” and the “Change of TNF-alpha” value ([2]; 10 ng/mL LPS, 200 μg/mL) was “significant reduction”. The “Change of TNF-alpha concentration” value ([2]; 100 ng/mL LPS, all active ingredient concentrations) was “significant reduction”, the “Change of IL-6 values” ([2]; 2 μg/mL with 100 ng/mL LPS) was “significant reductions” and the “Change of IL-6 values” ([2]; 20 μg/mL with 10 ng/mL LPS) was “significant reductions”. For the same compound, the “IL-6 MW” value [2, 12] was 3.93 ng/mL, the “TNF-alpha MW” value [2, 12] was 8.38 ng/mL and the “IL-6 MW” value [2, 13] was 2.67 ng/mL. For the same compound, the “TNF-alpha MW” value [2, 13] was 7.40 ng/mL, the “IL-6 MW” value [2, 14] was 1.61 ng/mL and the “TNF-alpha MW” value [2, 14] was 9.80 ng/mL. For the same compound, the “IL-6 MW” value [2, 15] was 4.28 ng/mL, the “TNF-alpha MW” value [2, 15] was 9.06 ng/mL and the “IL-6 MW” value [2, 16] was 3.42 ng/mL. For the same compound, the “TNF-alpha MW” value [2, 16] was 6.76 ng/mL, the “IL-6 MW” value [2, 17] was 4.00 ng/mL and the “TNF-alpha MW” value [2, 17] was 7.69 ng/mL. The “IL-6 MW” value [2, 18] was 0.00 ng/mL, the “TNF-alpha MW” value [2, 18] was 0.00 ng/mL and the “Immunostimulating effect on not LPS-induced macrophages” value ([2]; not LPS-induced) was “could not be shown”. For the same compound, the “Effect on IL-6 values” [3] was “immunodepressive effect”, the “Toxicity judged from weight development” value [4] was “do not have any toxicity or at most a very small one” and the “Weight development/increase MW” value ([4]; 2 μg per animal and application, parenteral, sodium salt) was -0.14 g. For the same compound, the “Weight development/increase MW” value ([4]; 20 μg per animal and application, parenteral, sodium salt) was 1.43 g, the “Weight development/increase MW” value ([4]; 200 μg per animal and application, parenteral, sodium salt) was 0.50 g and the “Weight development/increase MW” value ([4]; all doses (total)) was 0.59 g. For the same compound, the “Weight development/increase Total MW” value (S. pyogenes [5]; 2 μg) was -2.02 g, the “Weight development/increase Day 1 MW” value (S. pyogenes [5]; 2 μg) was -0.57 g and the “Weight development/increase Total MW” value (S. pyogenes [5]; 20 μg) was -1.69 g. For the same compound, the “Weight development/increase Day 1 MW” value (S. pyogenes [5]; 20 μg) was -0.55 g, the “Weight development/increase Total MW” value (S. pyogenes [5]; 200 μg) was -1.86 g and the “Weight development/increase Day 1 MW” value (S. pyogenes [5]; 200 μg) was -0.72 g. The “Weight development/increase Total MW” value (S. pyogenes [5]; all doses (total)) was -1.86 g, the “Weight development/increase Day 1 MW” value (S. pyogenes [5]; all doses (total)) was -0.62 g and the “Share of surviving mice” value (S. pyogenes [6]; 2 μg, sodium salt) was 90%. For the same compound, the “Share of surviving mice” value (S. pyogenes [6]; 20 μg) was 80%, the “Share of surviving mice” value (S. pyogenes [6]; 200 μg, sodium salt) was 70% and the “Survival compared to the controls” value (S. pyogenes [6]) was “increase of the share of surviving animals”. For the same compound, the “Share of surviving mice” value (S. pyogenes [6]; all doses (total)) was 80%, the “Germ load (CFU) Blood MW” value (S. pyogenes [7]; 2 μg) was 5.96 log/mL and the “Germ load (CFU) Liver MW” value (S. pyogenes [7]; 2 μg) was 6.13 log/g. The “Germ load (CFU) Blood MW” value (S. pyogenes [7]; 20 μg) was 5.88 log/mL, the “Germ load (CFU) Liver MW” value (S. pyogenes [7]; 20 μg) was 6.79 log/g and the “Germ load (CFU) Blood MW” value (S. pyogenes [7]; 200 μg) was 5.54 log/mL. For the same compound, the “Germ load (CFU) Liver MW” value (S. pyogenes [7]; 200 μg) was 6.14 log/g, the “Germ load (CFU) Blood MW” value (S. pyogenes [7]; all doses (total)) was 5.80 log/mL and the “Germ load (CFU) Liver MW” value (S. pyogenes [7]; all doses (total)) was 6.36 log/g. For the same compound, the “Germ count in the blood compared to the controls” value (S. pyogenes [7]; highest dose) was “tendentious germ count reduction”, the “TNF-alpha MW” value ([8]; 2 μg, blood after 48 hours, sodium salt) was 0.0 pg/mL and the “TNF-alpha MW” value ([8]; 20 μg, blood after 48 hours, sodium salt) was 0.0 pg/mL. The “TNF-alpha MW” value ([8]; 200 μg, blood after 48 hours, sodium salt) was 16.94 pg/mL, the “TNF-alpha MW” value ([8]; all doses (total), blood after 48 hours, sodium salt) was 5.65 pg/mL and the “IL-6 increase” value ([8]; blood after 48 hours) was “neither in the substance groups nor in the control groups increases could be found”. For the same compound, the “TNF-alpha increase” value ([8]; compared to the other groups, sodium salt) was “do not cause a relevant increase”, the “IL-6 in infected mice” value (S. pyogenes [9]; not confirmed in all repetitions) was “in part distinct tendencies of an IL-6 reduction” and the “Liver enzyme values GOT (AST) and GPT (ALT)” value (S. pyogenes [9]; infected mice, some repetitions only) was “tendencies to reduce the liver enzyme values”. The “Transaminases GOT (AST) and GPT (ALT)” value [10] was “Distinct differences between the groups could not be found” and the “Initial dissolution rate” value [11] was “higher than that of form I”.
